The source of these data is publication PMC9388731, “Radiosynthesis and First Preclinical Evaluation of the Novel ^11C-Labeled FAP Inhibitor ^11C-FAPI: A Comparative Study of ^11C-FAPIs and (^68Ga) Ga-DOTA-FAPI-04 in a High–FAP-Expression Mouse Model” (Frontiers in Chemistry, 2022).

One series has as its system U87MG tumor xenografts. Briefly: Biodistribution (ex vivo γ-counting of organs) in U87MG tumor xenograft mice. Details: species or system nude mice (female BALB/c nu/nu). The following applies: for Tumor uptake: i.v., mean ± SD, n = 3. The procedure:
(§1) All animal experimental procedures and protocols were approved by the Institutional Animal Care and Use Committee (Renji Hospital, School of Medicine, Shanghai Jiao Tong University). For subcutaneous models, U87MG cells (2 × 10^6 cells in 100 μl PBS) were implanted into the right flank of female BALB/c nu/nu athymic mice to establish subcutaneous tumor xenografts. For orthotopic xenografts, U87MG cells (0.5 × 10^6 cells in […] PBS) were transplanted into the brains of female BALB/c nude mice (4–6 weeks old). The subcutaneous and orthotopic models were ready for PET imaging 3 weeks after tumor cell inoculation.
U87MG mice were injected with 3.7 MBq of each tracer and sacrificed at different times (30, 60, and 90 min p.i.; n = 3 for each time point). The main organs, including the kidney, intestine, liver, heart, lung, muscle, brain, and tumors, were isolated, weighed, and analyzed. The biodistribution in the [^68Ga] Ga-DOTA-FAPI-04 group (3.7 MBq) with approximately 100 μg of unlabeled DOTA-FAPI-04 was also evaluated for comparison. The radioactivity of the samples was determined using an automated γ-counter (Perkin-Elmer), and the uptake of the radiotracers in different organs/tissues was calculated and presented as percent of injected dose per Gram of tissue (%ID/g, mean ± SD).

Series [1] can be described thus: In vitro stability in PBS at 37°C (radio-HPLC). Format: physicochemical. The following applies: 150 min. The procedure: The radiochemical purities were analyzed by a radio-HPLC column (C18-B, 250 mm × 4.6 mm, 5 μm, 120 Å, Morhchem Technologies Inc., United States) (details presented in the Supplementary Material).
Series [2] has as its system U87MG orthotopic xenograft glioma. As to the kind of experiment: Small-animal PET in the U87MG orthotopic xenograft glioma model. Type of series: in vivo, nude mice (female BALB/c). Conditions: 60 min p.i., n = 3. The protocol:
as §1
Ga-DOTA-FAPI-04 were diluted or concentrated to a 74 MBq/mL. […] Ga-DOTA-FAPI-04 was intravenously injected into U87MG tumor-bearing nude mice (n = 3 for each group). For static PET imaging, the acquisition times were 30, 60, and 90 min postinjection (p.i.). Each static scan consists of CT scan and PET scan. The CT scan time is 20 s and the PET scan time is 10 min. […] Regions of interest (ROIs) in the tumor, liver, heart, kidney, brain, and lung were counted on the PET images to quantify the radioactive signals. […] PET data were reconstructed with three-dimensional ordered-subset expectation-maximization (3D-OSEM) algorithm with Monte-Carlo based accurate detector model and subsequently was analyzed with Avatar 1.2 software (Pingseng China).

For another series, the system named is FAP. More on the design: method as in PMID 32222810. Conditions: ref (3); cited from earlier work.
The mark [3] stands for this setting: 60 min p.i. (time taken from the order of the sentence).
The mark [4] stands for this setting: 90 min p.i. (time taken from the order of the sentence).
Setting [5] is: time printed as 'at 60 and 90 min p.i.', one value per probe.

Several values for one entry are separate records, joined by “and”; a condition that tells them apart may be missing. Identical values can stand only once.

In the series on U87MG tumor xenografts (30 min p.i.), `COc1ccc2nccc(C(=O)NCC(=O)N3CCC[C@H]3C#N)c2c1` [^11C-RJ1101, (S)-N-(2-(2-cyanopyrrolidin-1-yl)-2-oxoethyl)-6-(methoxy-11C)quinoline-4-carboxamide] came in with a Brain uptake of 0.18 ± 0.02 %ID/g, a Heart uptake of 0.59 ± 0.01 %ID/g, an Intestine uptake of 4.95 ± 0.31 %ID/g and a Kidney uptake of 1.28 ± 0.06 %ID/g. Moreover, in the series with U87MG tumor xenografts (30 min p.i.), the Liver uptake came to 7.20 ± 1.71 %ID/g, the Lung uptake amounted to 0.56 ± 0.08 %ID/g, the Muscle uptake amounted to 0.42 ± 0.04 %ID/g and the “T/L ratio (tumor/liver)” value is listed as 0.19 ± 0.03. In the series with U87MG tumor xenografts (30 min p.i.), the “tumor-to-muscle (T/M) ratio” value was 3.19 ± 0.06 and the Tumor uptake came to 1.34 ± 0.10 %ID/g. In the series with U87MG tumor xenografts (60 min p.i.), this compound had a Brain uptake of 0.02 ± 0.00 %ID/g, a Heart uptake of 0.06 ± 0.01 %ID/g, an Intestine uptake of 2.72 ± 0.45 %ID/g and a Kidney uptake of 0.17 ± 0.02 %ID/g. Besides, in the series with U87MG tumor xenografts (60 min p.i.), the Liver uptake was 0.24 ± 0.03 %ID/g, the Lung uptake turned out to be 0.05 ± 0.01 %ID/g, the Muscle uptake came to 0.06 ± 0.01 %ID/g and the “T/L ratio (tumor/liver)” value is 0.63 ± 0.04. Also, in the series with U87MG tumor xenografts (60 min p.i.), the “tumor-to-muscle (T/M) ratio” value amounted to 2.26 ± 0.25 and the Tumor uptake is on record as 0.15 ± 0.01 %ID/g. Besides, the “T/K ratio (tumor/kidney)” value in the series on U87MG tumor xenografts (setting [3]) is given as 0.89 ± 0.05. In the series with U87MG tumor xenografts (90 min p.i.), this compound showed a Heart uptake of 0.01 ± 0.00 %ID/g, an Intestine uptake of 0.67 ± 0.02 %ID/g, a Kidney uptake of 0.03 ± 0.00 %ID/g and a Liver uptake of 0.06 ± 0.00 %ID/g. In the series with U87MG tumor xenografts (90 min p.i.), the Lung uptake was determined as 0.01 ± 0.00 %ID/g, the Muscle uptake came to 0.01 ± 0.00 %ID/g, the “T/L ratio (tumor/liver)” value was 0.34 ± 0.06 and the “tumor-to-muscle (T/M) ratio” value turned out to be 2.00 ± 0.00. The compound also had a Tumor uptake in the series with U87MG tumor xenografts (90 min p.i.) of 0.02 ± 0.00 %ID/g. In addition, the “T/K ratio (tumor/kidney)” value in the series with U87MG tumor xenografts (setting [4]) is 0.67 ± 0.01. In addition, the “T/K ratio (tumor/kidney)” value in the series on U87MG tumor xenografts (setting [5]) stood at 1.05 ± 0.03. Also, the “radioactive purity after incubation in PBS (in vitro stability)” value in series [1] is reported as “over 99%”.
In the series on U87MG tumor xenografts (30 min p.i.), `[11CH3]Oc1ccc2nccc(C(=O)NCC(=O)N3CC(F)(F)C[C@H]3C#N)c2c1` [^11C-RJ1102, (S)-N-(2-(2-cyano-4,4-difluoropyrrolidin-1-yl)-2-oxoethyl)-6-(methoxy-11C) quinoline-4-carboxamide] gave a Brain uptake of 0.16 ± 0.01 %ID/g, a Heart uptake of 0.78 ± 0.10 %ID/g, an Intestine uptake of 5.08 ± 0.24 %ID/g and a Kidney uptake of 1.84 ± 0.01 %ID/g. Further, in the series with U87MG tumor xenografts (30 min p.i.), the Liver uptake was found to be 2.87 ± 0.12 %ID/g, the Lung uptake amounted to 0.65 ± 0.02 %ID/g, the Muscle uptake was 0.74 ± 0.03 %ID/g and the “T/L ratio (tumor/liver)” value worked out at 0.60 ± 0.03. Also, in the series with U87MG tumor xenografts (30 min p.i.), the “tumor-to-muscle (T/M) ratio” value is 2.30 ± 0.32 and 2.30 ± 0.02; the Tumor uptake turned out to be 1.71 ± 0.08 %ID/g. In the series on U87MG tumor xenografts (60 min p.i.), this compound gave a Brain uptake of 0.07 ± 0.03 %ID/g, a Heart uptake of 0.26 ± 0.01 %ID/g, an Intestine uptake of 2.63 ± 0.28 %ID/g and a Kidney uptake of 0.48 ± 0.02 %ID/g. In the series with U87MG tumor xenografts (60 min p.i.), the Liver uptake was found to be 1.00 ± 0.05 %ID/g, the Lung uptake was found to be 0.25 ± 0.03 %ID/g, the Muscle uptake is on record as 0.20 ± 0.01 %ID/g and the “T/L ratio (tumor/liver)” value stood at 0.62 ± 0.03. Also, in the series on U87MG tumor xenografts (60 min p.i.), the “tumor-to-muscle (T/M) ratio” value amounted to 3.10 ± 0.14 and the Tumor uptake turned out to be 0.62 ± 0.06 %ID/g. In addition, the “T/K ratio (tumor/kidney)” value in the series on U87MG tumor xenografts (setting [3]) came to 1.29 ± 0.07. In addition, in the series with U87MG tumor xenografts (90 min p.i.), the Brain uptake was determined as 0.02 ± 0.01 %ID/g, the Heart uptake is given as 0.07 ± 0.01 %ID/g, the Intestine uptake turned out to be 1.10 ± 0.25 %ID/g and the Kidney uptake stood at 0.13 ± 0.02 %ID/g. Also, in the series on U87MG tumor xenografts (90 min p.i.), the Liver uptake was 0.29 ± 0.02 %ID/g, the Lung uptake stood at 0.06 ± 0.01 %ID/g, the Muscle uptake came out at 0.04 ± 0.00 %ID/g and the “T/L ratio (tumor/liver)” value was determined as 0.62 ± 0.03. Also, in the series on U87MG tumor xenografts (90 min p.i.), the “tumor-to-muscle (T/M) ratio” value is given as 4.50 ± 0.50 and the Tumor uptake is recorded as 0.18 ± 0.02 %ID/g. For the same compound, the “T/K ratio (tumor/kidney)” value with U87MG tumor xenografts (setting [4]) was determined as 1.39 ± 0.06. For the same compound, in the series with U87MG tumor xenografts (setting [5]), the “T/K ratio (tumor/kidney)” value is given as 0.93 ± 0.04. Also, the “tumor accumulation (small-animal PET)” value in series [2] worked out at 0.22 ± 0.02 ID%/g. In addition, the “radioactive purity after incubation in PBS (in vitro stability)” value in series [1] was “over 99%”.
In general, IC50 refers to the concentration needed to halve the response being measured. As to `COc1ccc2nccc(C(=O)NCC(=O)N3CC(F)(F)C[C@H]3C#N)c2c1` [compound 4, (S)-N-(2-(2-cyano-4,4-difluoropyrrolidin-1-yl)-2-oxoethyl)-6-(methoxy)quinoline-4-carboxamide], in the series on FAP, the IC50 is 8.5 ± 0.9 nM.
